Source: paper PMC9448382, “Fluorosulfate-containing pyrazole heterocycles as selective BuChE inhibitors: structure-activity relationship and biological evaluation for the treatment of Alzheimer’s disease” (Journal of Enzyme Inhibition and Medicinal Chemistry, 2022)
“Also recorded” adds a separate entry of the source.

How the values were obtained:
[1] = biological target: T1, hBuChE from human serum (Homo sapiens, UniProt P06276); experiment: hBuChE inhibition assay; format: biochemical; details: mean ± SEM
T1 construct: purchased Sigma B4186; host or cells: human serum (per result head)
Protocol: (§1) With 0.1 M pH 8 PBS, a DTNB solution (5 μM) was produced. Dissolve the test compound in DMSO to prepare a concentration of 2 × 10^−1 M stock solution. The solution was diluted in ethanol to five concentrations of 200, 100, 10, 1 and 0.1 μM, respectively. Measurement was carried out with 96-well plates, add 40 μL buffer, 10 μL test compound at a series of concentrations, and 10 μL AChE/BuChE in sequence. The mixture was then incubated at 37 °C for 10 min. Then add 20 μL DTNB, incubation at 37 °C for 10 min. […] For the blank value, 10 μL of ethanol was used instead of the inhibitor solution. The percentage of enzyme activity and the logarithm of compound concentration were used to express the inhibitory activity of compounds. IC50 was calculated by SPSS17.0.

[2] = test system: ICR mice; experiment: In vivo acute toxicity evaluation
Excerpt: A total of 20 mice weighing 20‒25 g (F: M = 1: 1) were randomly allocated into two groups: control (n = 10) and experimental (n = 10). […] For two weeks, the mice's behaviour, appearance, and body weight changes were examined and documented. GraphPadPrism8.0 software was used to compare and summarise the body weights of the mice in the control and experimental groups.

[3] = biological target: T2, eqBuChE (Equus caballus, UniProt P81908); experiment: Kinetic study of eqBuChE inhibition; format: biochemical, horse
T2 construct: BuChE from horse serum (C4290-1KU; Sigma); purchased Sigma C4290-1KU; host or cells: horse serum
Protocol: The same test settings were used for kinetic studies, with six concentrations of substrate (0.1‒1 mM) and four concentrations of inhibitor (0‒1.6 µM). The effect of different doses of compound K3 on BuChE catalytic activity at 37 °C was also investigated. The final concentration of enzyme was changed (0‒0.18 U/mL) under the same test conditions as indicated in the assay methodology. For the assessment of reversible and irreversible inhibitor binding at enzyme, different concentrations of compound K3 (0, 0.4, 0.8, and 1.6 µM) were utilised.

[4] = test system: male ICR mice; details: Day 3 to Day 14
Excerpt: The National Institutes of Health Guide for the Care and Use of Laboratory Animals was followed for all experiments. The Animal Care and Use Committee of Anhui Medical University adopted the Measures for the Care and Treatment of Laboratory Animals. In Anhui Medical University's animal centre, male ICR mice were employed (Hefei). […] Throughout all of the experiments, the room's ambient temperature and relative humidity (50%) remained constant. […] 8‒10 animals were used in each study group. The experimental time was from 08: 00 to 14: 00, and the mice were sacrificed by cervical dislocation shortly after the experiment ended. […] Aβ1–42 aggregation was induced by dissolving the Aβ1–42 peptide in DMSO as a stock solution of 5 mM and incubating it in saline at a final concentration of 2 mg/mL for 24 h at 37 °C.

[5] = test system: human hepatoblastoma cells HepG2; experiment: Cytotoxicity MTT assay, HepG2 cells; details: 50 μM, 24 h
Protocol: (§2) Human hepatoblastoma cells HepG2 and human normal liver cells LO2 cells were cultured at 37 °C in DMEM containing 10% foetal bovine serum, 100 U/mL penicillin, and […] streptomycin in a humidified incubator with 5% CO2. The methyl thiazolyl tetrazolium (MTT) assay was used to assess cell cytotoxicity. In a 96-well plate, HepG2 cells and LO2 cells were injected at 1 × 10^4 cells per well. The cells were treated with various substances that were diluted in DMEM for 24 h after being cultivated for 24 h. The cells were then treated for 4 h with 20 µL 0.5 mg/mL MTT reagent. The cell culture was withdrawn after 4 h, and 150 µL DMSO were added to dissolve the formazan. […] Three independent tests were used to calculate cell viability.
(§3) Blank: cultured with fresh medium only.

[6] = test system: human normal liver cells LO2; experiment: Cytotoxicity MTT assay, L02 cells; details: 50 μM, 24 h
Protocol: as §2, §3

[7] = in vitro
Excerpt: Based on prior work[40]^,[41], a parallel artificial membrane permeation assay (PAMPA) for the blood-brain barrier (BBB) was used to determine the ability of the test chemical to penetrate into the brain. Six commercial medicines were purchased from Aladdin Reagents to validate the methodology. Energy Chemical provided the DMSO and dodecane. Avanti Polar Lipids provided the porcine brain lipid (PBL). Millipore provided the donor 96-well filter microplate with a PVDF membrane (pore size […]) and the acceptor indented 96-well microplate. Corning Inc. provided the 96-well UV plate (COSTAR). DMSO was used to dissolve commercial medications and test compounds at a concentration of 20 mg/mL. They were then diluted 200 times in a solution of PBS (pH 7.4 ± 0.1)/EtOH (70/30, v/v) to achieve a final concentration of 100 µg/mL. The donor microplate's fifilter membrane was coated with 4 µL of PBL in dodecane (20 mg/mL). The donor wells were then filled with 200 µL of diluted chemical solution and 300 µL of PBS/EtOH (70/30, v/v). To make the membrane contact with buffer solution, the donor fifilter plate was carefully positioned on top of the acceptor plate to form a “sandwich” assembly. At 25 °C, the sandwich was left undisturbed. The donor plate was carefully removed after 18 h of incubation, and the concentrations of test chemicals in the donor and acceptor wells were quantified using a UV plate spectroscopic reader (PerkinElmer VICTOR Nivo, Finland). Each sample was analysed at three wavelengths, in at least three independent experiments, in four wells.
Pe, permeability, refers to the ability of compounds to permeate the membranes through passive diffusion in the blood-brain barrier penetration assays.

[8] = biological target: T3, recombinant human AChE (hAChE) (Homo sapiens, UniProt P22303); experiment: hAChE inhibition assay; format: biochemical
T3 construct: purchased Sigma C1682
Protocol: as §1

[9] = test system: male ICR mice; experiment: In vivo hepatotoxicity evaluation; design: species or system mouse
Protocol: . Mice were fasted for 24 h. Intragastrically, the combination was given at a dose of 30 mg/kg body weight with the same quantity of vehicle (po). […] A biochemical analyser was used to process the data (Hitachi 7020, Japan). Mice were slaughtered and livers were obtained for immunohistochemical morphological evaluation after the last sample of postglobular blood. We isolated two 3-mm sections of each liver from the hilum to the edge of the left lateral lobe using an ultra-thin semi-automatic microtome (LeicaRM2245, Germany), immediately placed them in 10% buffered formaldehyde, fixed them for 2 days, and embedded them in paraffin blocks using a paraffin-embedding station (LeicaEG1150H, Germany). Subsequently, five […] sections were prepared from these paraffin sections, deparaffinized, stained with haematoxylin and eosin (HE) or using the periodic acid-Schiff glycogen staining method.

[10] = ICR mice, intragastric, 1.0 g/kg, 14 days

T2 sequence (P81908 whole entry): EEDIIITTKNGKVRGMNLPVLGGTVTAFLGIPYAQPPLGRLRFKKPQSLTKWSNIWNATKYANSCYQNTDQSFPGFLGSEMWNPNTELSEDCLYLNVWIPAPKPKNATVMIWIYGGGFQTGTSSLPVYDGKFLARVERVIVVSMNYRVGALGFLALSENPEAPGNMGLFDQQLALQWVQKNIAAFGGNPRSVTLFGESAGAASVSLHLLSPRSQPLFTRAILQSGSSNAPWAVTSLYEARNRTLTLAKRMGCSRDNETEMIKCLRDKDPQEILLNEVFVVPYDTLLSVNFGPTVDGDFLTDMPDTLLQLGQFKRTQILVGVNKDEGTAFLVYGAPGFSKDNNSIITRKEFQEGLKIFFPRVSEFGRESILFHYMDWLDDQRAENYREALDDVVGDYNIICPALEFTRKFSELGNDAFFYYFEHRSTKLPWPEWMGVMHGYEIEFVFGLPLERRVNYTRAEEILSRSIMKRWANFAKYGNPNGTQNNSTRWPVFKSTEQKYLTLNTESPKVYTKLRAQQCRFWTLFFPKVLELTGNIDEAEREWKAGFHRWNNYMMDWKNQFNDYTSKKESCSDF
T3 sequence (P22303 32-614): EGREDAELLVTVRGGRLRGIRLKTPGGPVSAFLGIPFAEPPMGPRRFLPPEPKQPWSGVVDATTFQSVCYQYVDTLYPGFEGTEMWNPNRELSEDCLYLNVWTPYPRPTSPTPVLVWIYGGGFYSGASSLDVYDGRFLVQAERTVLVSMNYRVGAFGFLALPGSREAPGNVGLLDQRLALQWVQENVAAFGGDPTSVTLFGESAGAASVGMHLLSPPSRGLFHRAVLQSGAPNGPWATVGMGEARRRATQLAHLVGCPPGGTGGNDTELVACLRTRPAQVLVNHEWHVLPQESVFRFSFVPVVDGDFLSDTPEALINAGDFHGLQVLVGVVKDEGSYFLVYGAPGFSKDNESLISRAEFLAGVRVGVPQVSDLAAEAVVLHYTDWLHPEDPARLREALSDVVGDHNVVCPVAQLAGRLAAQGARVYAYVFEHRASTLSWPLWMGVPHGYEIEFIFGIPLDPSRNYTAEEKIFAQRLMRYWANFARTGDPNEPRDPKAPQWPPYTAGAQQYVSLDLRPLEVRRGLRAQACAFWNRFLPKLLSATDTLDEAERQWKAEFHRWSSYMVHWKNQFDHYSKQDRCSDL
T1 sequence (P06276 29-602): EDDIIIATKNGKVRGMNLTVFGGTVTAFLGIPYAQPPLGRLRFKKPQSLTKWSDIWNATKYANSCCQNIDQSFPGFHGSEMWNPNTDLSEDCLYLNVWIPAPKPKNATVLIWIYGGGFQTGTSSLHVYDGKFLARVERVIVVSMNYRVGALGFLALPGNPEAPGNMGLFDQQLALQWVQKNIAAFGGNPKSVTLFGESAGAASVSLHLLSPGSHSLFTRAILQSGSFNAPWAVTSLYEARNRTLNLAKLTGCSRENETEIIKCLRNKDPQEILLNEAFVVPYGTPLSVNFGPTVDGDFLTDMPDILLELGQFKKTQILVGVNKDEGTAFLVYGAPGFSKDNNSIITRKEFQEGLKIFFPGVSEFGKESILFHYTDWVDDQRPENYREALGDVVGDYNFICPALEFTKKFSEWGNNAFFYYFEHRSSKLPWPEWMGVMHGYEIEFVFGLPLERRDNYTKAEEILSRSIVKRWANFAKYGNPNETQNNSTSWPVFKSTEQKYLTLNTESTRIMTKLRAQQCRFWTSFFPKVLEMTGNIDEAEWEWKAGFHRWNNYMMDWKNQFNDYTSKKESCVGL

O=S(=O)(F)Oc1cc(-c2ccccc2)nn1-c1ccc(Cl)cc1 [Compound K3]
IC50 [1]: 6.59 ± 3.54 µM | differences in body weight changes vs vehicle group [2, 10]: not significant | tolerability in single-dose acute toxicity assay [2, 10]: well tolerated | tolerated dose ([2]; mice, in vivo safety experiments): 1000 mg/kg | reversibility of BuChE inhibition ([3]; K3 0, 0.4, 0.8, 1.6 μM, enzyme 0‒0.18 U/mL): reversible | type of BuChE inhibition ([3]; Lineweaver-Burk plots): mixed and non-competitive; also recorded: mixed, and non-competitive | Ki ([3]; Lineweaver-Burk secondary plots, read-out: dissociation constant Ki): 0.77 µM | effect on body weight during administration ([4]; 10 mg/kg po): no effect on body weight increase | effect on Aβ1–42-induced cognitive dysfunction (MWM) ([4]; Aβ1–42 10 µg icv, K3 10 mg/kg po, donepezil 15 mg/kg po): significantly improved | cell survival rate [5]: 87.9% | cell survival rate [6]: 94.4% | Papp ([7]; PAMPA, pH 7.4): 7.2 ×10⁻⁶ cm/s | Pe Exp. value ([7]; PAMPA-BBB, 18 h, 25 °C, three independent experiments): above 4 ×10^-6cm/s | inhibition at 20 µM [8]: 31.6 ± 5.74% | serum ALT and AST levels vs vehicle group ([9]; 30 mg/kg po, 8, 22 and 36 h after single dosing): No significant difference | liver histomorphology ([9]; 30 mg/kg, 36 h after administration): no core necrosis or evident steatosis
